Laboratory results from ChEMBL document CHEMBL4507261, “Data for DCP probe A-192621” (2021).

Legend:
[1] = target: 5-hydroxytryptamine receptor 1A (Homo sapiens) (UniProt P08908); experiment: 5-HT1A (h) Eurofins-Cerep binding assay; set-up: ligand concentration 0.5 nM; conditions: filed as agonist, Compound concentration 10.0 uM
[2] = target: Translocator protein (Rattus norvegicus) (UniProt P16257); experiment: BZD (peripheral) Eurofins-Cerep binding assay; set-up: ligand concentration 0.2 nM; conditions: filed as antagonist, Compound concentration 10.0 uM
Sequence of Translocator protein (Rattus norvegicus) (P16257 whole entry, looked up): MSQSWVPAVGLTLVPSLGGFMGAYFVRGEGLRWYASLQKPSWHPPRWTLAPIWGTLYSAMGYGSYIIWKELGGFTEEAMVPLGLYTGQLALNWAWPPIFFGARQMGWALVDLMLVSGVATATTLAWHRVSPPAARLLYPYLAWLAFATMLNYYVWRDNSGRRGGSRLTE

[3] = target: Calcium/calmodulin-dependent protein kinase kinase 2 (Homo sapiens) (UniProt Q96RR4); conditions: Compound concentration 1000.0 nM
[4] = tested on: Epidermal growth factor receptor (Homo sapiens), P00533 [G719S]; conditions: Compound concentration 1000.0 nM
[5] = target: Serine/threonine-protein kinase 17A (Homo sapiens) (UniProt Q9UEE5); conditions: Compound concentration 1000.0 nM
[6] = target: Serine/threonine-protein kinase MARK2 (Homo sapiens) (UniProt Q7KZI7); conditions: Compound concentration 1000.0 nM
[7] = target: Cyclin-dependent kinase 13 (Homo sapiens) (UniProt Q14004); conditions: Compound concentration 1000.0 nM
[8] = tested on: Leucine-rich repeat serine/threonine-protein kinase 2 (Homo sapiens), Q5S007 [G2019S]; conditions: Compound concentration 1000.0 nM
[9] = target: Mast/stem cell growth factor receptor Kit (Homo sapiens) (UniProt P10721); conditions: Compound concentration 1000.0 nM
[10] = target: Discoidin domain-containing receptor 2 (Homo sapiens) (UniProt Q16832); conditions: Compound concentration 1000.0 nM
[11] = target: Ribosomal protein S6 kinase alpha-3 (Homo sapiens) (UniProt P51812); conditions: Compound concentration 1000.0 nM
[12] = target: Ephrin type-A receptor 4 (Homo sapiens) (UniProt P54764); conditions: Compound concentration 1000.0 nM
[13] = target: Histamine H2 receptor (Homo sapiens) (UniProt P25021); experiment: H2 (h) Eurofins-Cerep binding assay; set-up: ligand concentration 0.075 nM; conditions: filed as antagonist, Compound concentration 10.0 uM
[14] = target: Serine/threonine-protein kinase TBK1 (Homo sapiens) (UniProt Q9UHD2); conditions: Compound concentration 1000.0 nM
Sequence of Serine/threonine-protein kinase TBK1 (Homo sapiens) (Q9UHD2 whole entry): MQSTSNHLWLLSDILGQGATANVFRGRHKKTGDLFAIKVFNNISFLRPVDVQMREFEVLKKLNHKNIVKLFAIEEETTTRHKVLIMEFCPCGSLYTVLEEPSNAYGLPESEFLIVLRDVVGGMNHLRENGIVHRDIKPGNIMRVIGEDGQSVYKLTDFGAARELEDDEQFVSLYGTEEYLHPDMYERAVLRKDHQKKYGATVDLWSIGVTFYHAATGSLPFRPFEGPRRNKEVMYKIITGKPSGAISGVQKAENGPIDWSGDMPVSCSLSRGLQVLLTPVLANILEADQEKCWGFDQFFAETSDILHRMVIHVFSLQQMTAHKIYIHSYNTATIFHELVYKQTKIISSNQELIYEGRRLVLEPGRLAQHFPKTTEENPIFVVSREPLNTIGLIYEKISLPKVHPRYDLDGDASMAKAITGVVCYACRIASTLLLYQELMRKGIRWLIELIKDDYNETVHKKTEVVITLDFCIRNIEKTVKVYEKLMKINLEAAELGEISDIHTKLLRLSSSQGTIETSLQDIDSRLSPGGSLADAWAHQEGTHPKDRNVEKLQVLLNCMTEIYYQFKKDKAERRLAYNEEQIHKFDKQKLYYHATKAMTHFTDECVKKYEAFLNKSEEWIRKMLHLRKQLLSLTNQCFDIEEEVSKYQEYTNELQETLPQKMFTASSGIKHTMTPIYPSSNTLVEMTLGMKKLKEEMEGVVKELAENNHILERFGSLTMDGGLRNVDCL

[15] = target: Mitogen-activated protein kinase 8 (Homo sapiens) (UniProt P45983); conditions: Compound concentration 1000.0 nM
[16] = target: Cyclin-dependent kinase 9 (Homo sapiens) (UniProt P50750); conditions: Compound concentration 1000.0 nM
Sequence of Cyclin-dependent kinase 9 (Homo sapiens) (P50750 whole entry): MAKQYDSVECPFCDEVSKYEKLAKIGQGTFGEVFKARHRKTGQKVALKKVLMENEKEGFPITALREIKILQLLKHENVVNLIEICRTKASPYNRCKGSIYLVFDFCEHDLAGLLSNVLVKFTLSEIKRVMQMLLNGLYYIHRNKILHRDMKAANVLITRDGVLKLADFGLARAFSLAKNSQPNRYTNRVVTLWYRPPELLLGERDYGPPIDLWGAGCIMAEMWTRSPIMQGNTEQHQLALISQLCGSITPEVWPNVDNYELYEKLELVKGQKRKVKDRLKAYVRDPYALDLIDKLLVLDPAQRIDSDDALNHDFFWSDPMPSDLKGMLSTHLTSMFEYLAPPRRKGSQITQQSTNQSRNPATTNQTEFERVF

[17] = target: Activin receptor type-1-like (Homo sapiens) (UniProt P37023); conditions: Compound concentration 1000.0 nM
Sequence of Activin receptor type-1-like (Homo sapiens) (P37023 whole entry, canonical isoform): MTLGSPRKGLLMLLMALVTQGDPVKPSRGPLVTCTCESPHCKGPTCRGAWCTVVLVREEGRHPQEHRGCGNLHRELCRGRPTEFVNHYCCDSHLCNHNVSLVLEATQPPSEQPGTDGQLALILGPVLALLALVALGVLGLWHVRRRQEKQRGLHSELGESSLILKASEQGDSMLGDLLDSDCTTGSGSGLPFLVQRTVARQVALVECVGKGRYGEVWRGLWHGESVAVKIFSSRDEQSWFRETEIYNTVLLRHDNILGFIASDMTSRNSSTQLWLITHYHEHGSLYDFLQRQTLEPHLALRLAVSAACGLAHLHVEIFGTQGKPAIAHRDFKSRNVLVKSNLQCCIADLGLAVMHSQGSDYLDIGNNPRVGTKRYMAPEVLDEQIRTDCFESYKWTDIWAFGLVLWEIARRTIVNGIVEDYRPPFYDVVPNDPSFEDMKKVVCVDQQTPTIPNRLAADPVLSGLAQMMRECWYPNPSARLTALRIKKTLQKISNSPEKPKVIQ

[18] = target: Phosphorylase b kinase gamma catalytic chain, skeletal muscle/heart isoform (Homo sapiens) (UniProt Q16816); conditions: Compound concentration 1000.0 nM
[19] = target: Misshapen-like kinase 1 (Homo sapiens) (UniProt Q8N4C8); conditions: Compound concentration 1000.0 nM
Sequence of Misshapen-like kinase 1 (Homo sapiens) (Q8N4C8 whole entry, looked up): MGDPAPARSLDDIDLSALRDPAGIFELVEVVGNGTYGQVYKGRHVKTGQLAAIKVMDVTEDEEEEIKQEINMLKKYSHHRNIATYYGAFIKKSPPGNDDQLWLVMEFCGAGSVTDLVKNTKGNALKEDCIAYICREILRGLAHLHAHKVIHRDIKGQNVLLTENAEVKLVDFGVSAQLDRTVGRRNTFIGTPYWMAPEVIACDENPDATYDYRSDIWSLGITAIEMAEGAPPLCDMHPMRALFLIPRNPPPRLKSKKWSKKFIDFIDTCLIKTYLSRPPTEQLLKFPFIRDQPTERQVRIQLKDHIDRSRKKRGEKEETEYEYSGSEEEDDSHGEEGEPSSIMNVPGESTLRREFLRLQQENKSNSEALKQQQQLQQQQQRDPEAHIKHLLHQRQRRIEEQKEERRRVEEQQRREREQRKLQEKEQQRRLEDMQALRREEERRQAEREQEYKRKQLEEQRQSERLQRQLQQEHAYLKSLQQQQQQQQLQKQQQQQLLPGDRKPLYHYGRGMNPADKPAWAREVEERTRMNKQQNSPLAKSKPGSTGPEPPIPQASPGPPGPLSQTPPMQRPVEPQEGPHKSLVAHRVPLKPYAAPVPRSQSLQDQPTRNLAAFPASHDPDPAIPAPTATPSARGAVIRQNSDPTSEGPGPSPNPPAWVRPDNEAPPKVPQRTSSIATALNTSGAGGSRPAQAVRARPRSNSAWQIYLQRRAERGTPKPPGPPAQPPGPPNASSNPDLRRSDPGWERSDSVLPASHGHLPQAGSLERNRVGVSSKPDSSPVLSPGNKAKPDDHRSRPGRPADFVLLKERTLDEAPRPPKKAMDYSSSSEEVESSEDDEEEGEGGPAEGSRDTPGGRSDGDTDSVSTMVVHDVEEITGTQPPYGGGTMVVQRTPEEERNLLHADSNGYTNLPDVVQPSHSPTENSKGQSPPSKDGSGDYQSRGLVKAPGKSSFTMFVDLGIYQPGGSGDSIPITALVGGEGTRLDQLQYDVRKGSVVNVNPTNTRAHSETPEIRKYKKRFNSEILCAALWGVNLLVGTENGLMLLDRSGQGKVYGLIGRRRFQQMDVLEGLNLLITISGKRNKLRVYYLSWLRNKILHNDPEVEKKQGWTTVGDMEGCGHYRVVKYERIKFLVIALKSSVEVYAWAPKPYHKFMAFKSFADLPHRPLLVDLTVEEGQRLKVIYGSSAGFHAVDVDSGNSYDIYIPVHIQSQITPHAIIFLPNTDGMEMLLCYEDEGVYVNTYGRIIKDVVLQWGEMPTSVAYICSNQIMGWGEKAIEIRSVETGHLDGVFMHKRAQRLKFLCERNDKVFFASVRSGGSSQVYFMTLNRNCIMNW

[20] = target: Hormonally up-regulated neu tumor-associated kinase (Homo sapiens) (UniProt P57058); conditions: Compound concentration 1000.0 nM
[21] = target: Serine/threonine-protein kinase TAO2 (Homo sapiens) (UniProt Q9UL54); conditions: Compound concentration 1000.0 nM
[22] = target: Serine/threonine-protein kinase Nek3 (Homo sapiens) (UniProt P51956); conditions: Compound concentration 1000.0 nM
Sequence of Serine/threonine-protein kinase Nek3 (Homo sapiens) (P51956 whole entry): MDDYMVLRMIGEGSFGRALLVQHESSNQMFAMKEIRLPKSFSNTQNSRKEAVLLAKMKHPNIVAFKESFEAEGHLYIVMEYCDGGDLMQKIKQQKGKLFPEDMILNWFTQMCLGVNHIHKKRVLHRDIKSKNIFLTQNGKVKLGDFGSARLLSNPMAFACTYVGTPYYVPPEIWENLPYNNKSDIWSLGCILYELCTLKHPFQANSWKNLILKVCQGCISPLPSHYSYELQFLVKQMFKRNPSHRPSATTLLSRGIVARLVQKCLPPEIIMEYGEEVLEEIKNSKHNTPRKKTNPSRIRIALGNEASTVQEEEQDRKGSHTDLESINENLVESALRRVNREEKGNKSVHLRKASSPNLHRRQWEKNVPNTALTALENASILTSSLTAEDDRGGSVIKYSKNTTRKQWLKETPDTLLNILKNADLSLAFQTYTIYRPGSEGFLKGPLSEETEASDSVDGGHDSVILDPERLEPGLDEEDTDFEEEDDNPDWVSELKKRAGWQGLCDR

[23] = target: Eukaryotic translation initiation factor 2-alpha kinase 1 (Homo sapiens) (UniProt Q9BQI3); conditions: Compound concentration 1000.0 nM
[24] = target: Delta-type opioid receptor (Homo sapiens) (UniProt P41143); experiment: delta (DOP) (h) Eurofins-Cerep binding assay; set-up: ligand concentration 0.5 nM; conditions: filed as agonist, Compound concentration 10.0 uM
[25] = target: Motilin receptor (Homo sapiens) (UniProt O43193); experiment: motilin (h Eurofins-Cerep binding assay; set-up: ligand concentration 0.05 nM; conditions: filed as agonist, Compound concentration 10.0 uM
[26] = target: Tyrosine-protein kinase TXK (Homo sapiens) (UniProt P42681); conditions: Compound concentration 1000.0 nM
[27] = target: Serine/threonine-protein kinase 24 (Homo sapiens) (UniProt Q9Y6E0); conditions: Compound concentration 1000.0 nM
Sequence of Serine/threonine-protein kinase 24 (Homo sapiens) (Q9Y6E0 whole entry, looked up): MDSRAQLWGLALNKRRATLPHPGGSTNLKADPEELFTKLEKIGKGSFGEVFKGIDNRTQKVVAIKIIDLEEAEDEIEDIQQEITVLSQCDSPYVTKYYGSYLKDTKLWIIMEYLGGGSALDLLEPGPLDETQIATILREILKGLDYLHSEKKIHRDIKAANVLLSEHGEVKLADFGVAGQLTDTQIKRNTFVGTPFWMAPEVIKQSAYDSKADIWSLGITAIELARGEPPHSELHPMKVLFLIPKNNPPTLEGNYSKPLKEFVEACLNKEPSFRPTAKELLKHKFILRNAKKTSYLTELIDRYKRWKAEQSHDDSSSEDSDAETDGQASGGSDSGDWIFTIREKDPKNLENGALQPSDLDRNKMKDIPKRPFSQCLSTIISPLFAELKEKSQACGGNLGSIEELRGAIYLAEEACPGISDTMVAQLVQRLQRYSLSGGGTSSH

[28] = target: Cholecystokinin receptor type A (Homo sapiens) (UniProt P32238); experiment: CCK1 (CCKA) (h) Eurofins-Cerep binding assay; set-up: ligand concentration 0.08 nM; conditions: filed as agonist, Compound concentration 10.0 uM
Sequence of Cholecystokinin receptor type A (Homo sapiens) (P32238 whole entry): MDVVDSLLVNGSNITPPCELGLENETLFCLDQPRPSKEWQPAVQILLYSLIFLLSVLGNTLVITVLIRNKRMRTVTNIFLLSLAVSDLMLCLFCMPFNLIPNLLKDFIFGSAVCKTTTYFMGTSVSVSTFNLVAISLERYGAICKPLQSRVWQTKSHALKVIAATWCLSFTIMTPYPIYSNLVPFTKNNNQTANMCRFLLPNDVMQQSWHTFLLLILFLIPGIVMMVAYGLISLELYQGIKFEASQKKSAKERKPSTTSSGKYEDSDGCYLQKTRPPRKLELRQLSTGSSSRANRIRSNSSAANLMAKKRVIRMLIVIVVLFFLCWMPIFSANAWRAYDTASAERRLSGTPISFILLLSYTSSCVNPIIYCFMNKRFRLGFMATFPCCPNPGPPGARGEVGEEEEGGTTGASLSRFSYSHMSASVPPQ

[29] = target: Cyclin-dependent kinase 5 (Homo sapiens) (UniProt Q00535); conditions: Compound concentration 1000.0 nM
[30] = target: Serine/threonine-protein kinase LATS2 (Homo sapiens) (UniProt Q9NRM7); conditions: Compound concentration 1000.0 nM
[31] = target: Calcium/calmodulin-dependent protein kinase type II subunit gamma (Homo sapiens) (UniProt Q13555); conditions: Compound concentration 1000.0 nM
[32] = target: Receptor tyrosine-protein kinase erbB-3 (Homo sapiens) (UniProt P21860); conditions: Compound concentration 1000.0 nM
[33] = target: Activin receptor type-2A (Homo sapiens) (UniProt P27037); conditions: Compound concentration 1000.0 nM
Sequence of Activin receptor type-2A (Homo sapiens) (P27037 whole entry): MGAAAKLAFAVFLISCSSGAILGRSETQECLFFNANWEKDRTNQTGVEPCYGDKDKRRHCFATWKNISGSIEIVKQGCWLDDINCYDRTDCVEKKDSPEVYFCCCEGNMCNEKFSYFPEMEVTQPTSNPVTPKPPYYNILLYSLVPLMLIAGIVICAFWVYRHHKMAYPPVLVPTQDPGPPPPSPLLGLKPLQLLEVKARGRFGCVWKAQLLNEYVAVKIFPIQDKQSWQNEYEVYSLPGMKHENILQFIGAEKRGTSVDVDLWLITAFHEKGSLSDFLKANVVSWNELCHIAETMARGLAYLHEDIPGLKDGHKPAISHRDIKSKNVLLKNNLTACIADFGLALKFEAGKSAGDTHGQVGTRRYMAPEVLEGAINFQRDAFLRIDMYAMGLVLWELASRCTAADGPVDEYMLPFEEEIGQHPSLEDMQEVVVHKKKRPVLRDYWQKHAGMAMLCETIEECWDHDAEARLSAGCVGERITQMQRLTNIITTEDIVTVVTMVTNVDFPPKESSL

[34] = target: Phosphatidylinositol 4-phosphate 5-kinase type-1 alpha (Homo sapiens) (UniProt Q99755); conditions: Compound concentration 1000.0 nM
[35] = target: Dual specificity protein kinase CLK1 (Homo sapiens) (UniProt P49759); conditions: Compound concentration 1000.0 nM
[36] = target: MAP kinase-activated protein kinase 2 (Homo sapiens) (UniProt P49137); conditions: Compound concentration 1000.0 nM
[37] = target: Mitogen-activated protein kinase kinase kinase 10 (Homo sapiens) (UniProt Q02779); conditions: Compound concentration 1000.0 nM
[38] = target: Serine/threonine-protein kinase Nek4 (Homo sapiens) (UniProt P51957); conditions: Compound concentration 1000.0 nM
[39] = target: Serine/threonine-protein kinase/endoribonuclease IRE1 (Homo sapiens) (UniProt O75460); conditions: Compound concentration 1000.0 nM
[40] = target: Vasopressin V1a receptor (Homo sapiens) (UniProt P37288); experiment: V1 a (h) Eurofins-Cerep binding assay; set-up: ligand concentration 0.3 nM; conditions: filed as agonist, Compound concentration 10.0 uM
[41] = target: 5'-AMP-activated protein kinase catalytic subunit alpha-2 (Homo sapiens) (UniProt P54646); conditions: Compound concentration 1000.0 nM
[42] = target: Insulin receptor-related protein (Homo sapiens) (UniProt P14616); conditions: Compound concentration 1000.0 nM
[43] = target: Dual specificity mitogen-activated protein kinase kinase 6 (Homo sapiens) (UniProt P52564); conditions: Compound concentration 1000.0 nM
[44] = tested on: Mast/stem cell growth factor receptor Kit (Homo sapiens), P10721 [L576P]; conditions: Compound concentration 1000.0 nM
[45] = tested on: Tyrosine-protein kinase ABL1 (Homo sapiens), P00519 [F317L]; conditions: Compound concentration 1000.0 nM

## CCCOc1ccc([C@H]2[C@H](C(=O)O)[C@@H](c3ccc4c(c3)OCO4)CN2CC(=O)Nc2c(CC)cccc2CC)cc1 [A-192621]
[1]
  % Inhibition of Control Specific Binding (Mean n=2): -5.9%
[2]
  % Inhibition of Control Specific Binding (Mean n=2): 72.1%
[3]
  residual activity: 93%
[4]
  residual activity: 89%
[5]
  residual activity: 92%
[6]
  residual activity: 88%
[7]
  residual activity: 45%
[8]
  residual activity: 91%
[9]
  residual activity: 92%
[10]
  residual activity: 71%
[11]
  residual activity: 72%
[12]
  residual activity: 97%
[13]
  % Inhibition of Control Specific Binding (Mean n=2): -35.3%
[14]
  residual activity: 91%
[15]
  residual activity: 70%
[16]
  residual activity: 88%
[17]
  residual activity: 99%
[18]
  residual activity: 99%
[19]
  residual activity: 68%
[20]
  residual activity: 100%
[21]
  residual activity: 74%
[22]
  residual activity: 69%
[23]
  residual activity: 84%
[24]
  % Inhibition of Control Specific Binding (Mean n=2): 33.5%
[25]
  % Inhibition of Control Specific Binding (Mean n=2): -17.9%
[26]
  residual activity: 85%
[27]
  residual activity: 84%
[28]
  % Inhibition of Control Specific Binding (Mean n=2): 63.1%
[29]
  residual activity: 100%
[30]
  residual activity: 97%
[31]
  residual activity: 95%
[32]
  residual activity: 78%
[33]
  residual activity: 100%
[34]
  residual activity: 82%
[35]
  residual activity: 87%
[36]
  residual activity: 100%
[37]
  residual activity: 100%
[38]
  residual activity: 71%
[39]
  residual activity: 86%
[40]
  % Inhibition of Control Specific Binding (Mean n=2): 7.4%
[41]
  residual activity: 100%
[42]
  residual activity: 94%
[43]
  residual activity: 100%
[44]
  residual activity: 90%
[45]
  residual activity: 62%

## CCCOc1ccc([C@@H]2[C@@H](C(=O)O)[C@H](c3ccc4c(c3)OCO4)CN2CC(=O)Nc2c(CC)cccc2CC)cc1 [A-1806262]
[1]
  % Inhibition of Control Specific Binding (Mean n=2): -3.8%
[2]
  % Inhibition of Control Specific Binding (Mean n=2): 54.7%
[3]
  residual activity: 84%
[4]
  residual activity: 100%
[5]
  residual activity: 92%
[6]
  residual activity: 92%
[7]
  residual activity: 81%
[8]
  residual activity: 84%
[9]
  residual activity: 82%
[10]
  residual activity: 74%
[11]
  residual activity: 95%
[12]
  residual activity: 75%
[13]
  % Inhibition of Control Specific Binding (Mean n=2): -18.1%
[14]
  residual activity: 100%
[15]
  residual activity: 87%
[16]
  residual activity: 87%
[17]
  residual activity: 100%
[18]
  residual activity: 97%
[19]
  residual activity: 78%
[20]
  residual activity: 70%
[21]
  residual activity: 91%
[22]
  residual activity: 100%
[23]
  residual activity: 86%
[24]
  % Inhibition of Control Specific Binding (Mean n=2): 23.5%
[25]
  % Inhibition of Control Specific Binding (Mean n=2): 4.4%
[26]
  residual activity: 100%
[27]
  residual activity: 74%
[28]
  % Inhibition of Control Specific Binding (Mean n=2): 75.9%
[29]
  residual activity: 100%
[30]
  residual activity: 100%
[31]
  residual activity: 88%
[32]
  residual activity: 84%
[33]
  residual activity: 100%
[34]
  residual activity: 90%
[35]
  residual activity: 93%
[36]
  residual activity: 100%
[37]
  residual activity: 100%
[38]
  residual activity: 72%
[39]
  residual activity: 90%
[40]
  % Inhibition of Control Specific Binding (Mean n=2): 15%
[41]
  residual activity: 95%
[42]
  residual activity: 100%
[43]
  residual activity: 100%
[44]
  residual activity: 100%
[45]
  residual activity: 82%
